# According to paper PMC9947975, “Design, Synthesis, and Biological Evaluation Studies of Novel Naphthalene-Chalcone Hybrids As Antimicrobial, Anticandidal, Anticancer, and VEGFR-2 Inhibitors” (ACS Omega, 2023):
# Tests used:
# B. subtilis (ATCC 6051) = test: Antibacterial activity, MIC50 by resazurin fluorometric measurement; assay type: cell-based; details: Bacillus subtilis, ATCC6051; means of triplicate assays
# Experimental: (§1) Obtained compounds (2a–2j) were evaluated for antibacterial activity against Escherichia coli (E. coli) (ATCC 25922), Pseudomonas aeruginosa (P. aeruginosa) (ATCC 27853), […] (E. faecalis) (ATCC 2942), Bacillus subtilis (B. subtilis) (ATCC 6051), Staphylococcus aureus (S. aureus) (ATCC 29213), and Staphylococcus epidermidis (S. epidermidis) (ATCC 12228). MIC50 values were determined via fluorometric measurements, using resazurin solution.[13] Azithromycin was used as a standard drug in the antibacterial activity test.
# (§2) The antimicrobial activity of obtained derivatives (2a–2j) was screened on six bacterial and three fungal strains according to the standard procedure of CLSI[20] as described in the previous study.[21] The antibacterial activities of the obtained compounds were screened against B. subtilis (ATCC 6051), E. coli (ATCC 25922), E. faecalis (ATCC 2942), P. aeruginosa (ATCC 27853), S. aureus (ATCC 29213), and S. epidermidis (ATCC 12228). The obtained compounds were evaluated for anticandidal activity against C. albicans (ATCC 24433), C. krusei (ATCC 6258), and C. parapsilopsis (ATCC 22019). For antibacterial activity, azithromycin was utilized as a reference drug, whereas voriconazole and fluconazole were used for anticandidal activity.
# E. coli (ATCC 25922) = test: as above; assay type: cell-based; details: Escherichia coli, ATCC25922; means of triplicate assays
# Experimental: as §1, §2
# [1] = test system: P. aeruginosa (ATCC 27853); test: as above; assay type: cell-based; details: Pseudomonas aeruginosa, ATCC27853; means of triplicate assays
# Experimental: as §1, §2
# E. faecalis (ATCC 2942) = test: as above; assay type: cell-based, Enterococcus faecalis; details: for MIC50: Enterococcus faecalis, ATCC2942, means of triplicate assays
# Experimental: as §1, §2
# S. aureus (ATCC 29213) = test: as above; assay type: cell-based, Staphylococcus aureus; details: Staphylococcus aureus, ATCC29213, means of triplicate assays
# Experimental: as §1, §2
# [2] = test system: S. epidermidis (ATCC 12228); test: as above; assay type: cell-based, Staphylococcus epidermidis; details: Staphylococcus epidermidis, ATCC12228, means of triplicate assays; read-out: MIC50 S. epidermis
# Experimental: as §1, §2
# C. albicans (ATCC 24433) = test: Anticandidal activity, MIC50 by resazurin fluorometric measurement; assay type: cell-based, Candida albicans; details: Candida albicans, ATCC24433, means of triplicate assays
# Experimental: (§3) Obtained compounds (2a–2j) were evaluated for anticandidal activity against Candida albicans (C. albicans) (ATCC 24433), Candida krusei (C. krusei) (ATCC 6258), and Candida parapsilopsis (C. parapsilopsis) (ATCC 22019). MIC50 values were determined via fluorometric measurements, using resazurin solution.[13] Voriconazole and fluconazole were used as a standard drug in the anticandidal activity test. […] In general, it is seen that the 2-methoxyethyl substituent increases the anticandidal activity.
# as §2
# C. krusei (ATCC 6258) = test: as above; assay type: cell-based, Candida krusei; details: Pichia kudriavzevii, ATCC6258, means of triplicate assays
# Experimental: as §3, §2
# [3] = test system: C. parapsilopsis (ATCC 22019); test: as above; assay type: cell-based, Candida parapsilopsis; details: Candida, ATCC22019; means of triplicate assays
# Experimental: as §3, §2
# A549 cell line [4] = test: MTT cytotoxicity test; assay type: cell-based; details: Homo sapiens, A549, 24 h, MTT, 24-h treatment, means of quartet assays ± SEM
# Experimental: (§4) The MTT test was performed using 3 different cell lines for calculated IC50 values of obtained compounds. […] For this purpose, the cytotoxic effects of the compounds against the healthy mouse fibroblast cell (NIH3T3) were investigated.
# (§5) The 3-(4,5-dimethylthiazol-2-yl)-2,5-diphenyltetrazolium salt reduction method, or MTT assay, is used to measure the metabolic activity of live cells. […] Doxorubicin is used as a therapeutic drug. MTT assays were carried out as previously explained.[19]
# HepG2 cell line = test: MTT cytotoxicity test; assay type: cell-based; details: Homo sapiens, 24-h treatment, means of quartet assays ± SEM
# Experimental: as §4, §5
# [5] = test system: healthy mouse fibroblast cell (NIH3T3); test: MTT cytotoxicity test on healthy cells; assay type: cell-based; details: 24-h treatment, means of quartet assays ± SEM
# Experimental: as §4, §5
# carcinogenic cell lines [6] = test: Flow cytometric analysis of apoptosis and necrosis (Apoptosis, Necrosis and Healthy Cell Quantitation Kit Plus); assay type: cell-based; details: IC50 concentration, 24-h incubation
# Excerpt: The flow cytometer was used to calculate the percentages of apoptotic and necrotic cells in four different quadrants, which are denoted by the letters “UL, UR, LL, LR” (Upper Left, Upper Right, Lower Left, Lower Right). The four distinct quadrants in the diagram represent the following areas, respectively: Apoptotic or early apoptotic cells, LR: CF488A+/(EthD-III)-; necrotic or late apoptotic cells, […]: CF488A+/(EthD-III)+; intact cells, LL: CF488A/(EthD-III); and dead or necrotic cells, UR: CF488A+/(EthD-III)+. The IC50 concentration of each substance was used in administration.
# Death pathway of the carcinogenic cell lines was detected by Apoptosis, Necrosis and Healthy Cell Quantitation Kit Plus (Cat: 30066, Biotium, Hayward, CA, USA)[22] as reported in the manufacturer’s instruction. The IC50 values for doxorubicin and compound 2j were applied. Cells were collected by centrifugation at 1200 rpm for 5 min following a 24-h incubation period. It was washed 2 times with PBS, centrifuged and turned into pellets. One ×10^6 cells/mL of annexin were suspended in V-FITC binding buffer. Ethidium iodide ([…]), Hoestch 1 mL, and annexin V-FITC ([…]) were added to stain cells and using the CytoFLEX Flow Cytometer (Beckman Coulter Life Sciences, USA) and CytExpert for CytoFLEX Acquisition and Analysis Software Version 2.2.0.97 instrument. Fluorescence measurements were made using a flow cytometer in accordance with the instrument procedure.
# A549 cell line [7] = test: Analysis of mitochondrial membrane potential (MMP) by flow cytometry, JC-1 dye; assay type: cell-based; details: A549, IC50 concentration, 24-h incubation
# Experimental: After a 24-h incubation period, mitochondrial membrane potential was measured with JC-1 dye.
# The BD Mitoscreen Mitochondrial Membrane Potential Detection JC-1 Kit (available from ref ([23])) was used for the MMP test. First, A549 cells were seeded in 25 mL flasks and incubated for 24 h in a 5% CO2 incubator. […] At the end of this period, cells were collected and centrifuged in accordance with the kit contents. After the upper part was removed, JC-1 dye was added and incubated at 37 °C for 10–15 min. At the end of the period, it was washed 2 times with washing solution and reading was done with the appropriate procedure using the CytoFLEX Flow Cytometer (Beckman Coulter Life Sciences, USA) and CytExpert for CytoFLEX Acquisition and Analysis Software Version 2.2.0.97.
# carcinogenic cell lines [8] = test: Flow cytometric analysis of apoptosis and necrosis (Apoptosis, Necrosis and Healthy Cell Quantitation Kit Plus); assay type: cell-based; details: IC50 concentration, 24-h incubation; remark: listed apart in the source
Structure (SMILES),MIC50 (B. subtilis (ATCC 6051)),MIC50 (E. coli (ATCC 25922)),MIC50 [1],MIC50 (E. faecalis (ATCC 2942)),MIC50 (S. aureus (ATCC 29213)),MIC50 [2],MIC50 (C. albicans (ATCC 24433)),MIC50 (C. krusei (ATCC 6258)),MIC50 [3],IC50 (A549 cell line [4]),IC50 (HepG2 cell line),IC50 [5],melting point,early apoptosis (Q1-LR) (carcinogenic cell lines [6]),intact cells (Q1-LL) (carcinogenic cell lines [6]),necrosis (Q1-UL) (carcinogenic cell lines [6]),rate of apoptosis (early + late apoptosis) (carcinogenic cell lines [6]),mitochondrial membrane potential (P3) (A549 cell line [7]),late apoptosis (Q1-UR) (carcinogenic cell lines [8]),MIC50 E. faecalis (E. faecalis (ATCC 2942); means of triplicate assays)
"CCN1CCN(c2ccc(C(=O)C=Cc3cccc4ccccc34)cc2)CC1 [2b, 1-(4-(4-Ethylpiperazin-1-yl)phenyl)-3-(naphthalen-1-yl)prop-2-en-1-one]",> 100 µg/mL,> 100 µg/mL,62.5 µg/mL,31.3 µg/mL,31.3 µg/mL,31.3 µg/mL,15.6 µg/mL,62.5 µg/mL,> 100 µg/mL,> 100 µM,45.8 ± 8.4 µM,22.9 ± 0.76 µM,164.6 to 166.1 °C,–,–,–,–,–,–,–
"COc1cccc2c1C(=O)c1c(O)c3c(c(O)c1C2=O)C[C@@](O)(C(=O)CO)C[C@@H]3O[C@H]1C[C@H](N)[C@H](O)[C@H](C)O1 [SD4, Doxorubicin, reference compound]",–,–,–,–,–,–,–,–,–,2.97 ± 0.16 µM,9.47 ± 1.49 µM,> 100 µM,–,8.55%,80.85%,1.76%,17.4%,30.270%,8.84%,–
"COCCN1CCN(c2ccc(C(=O)C=Cc3cccc4ccccc34)cc2)CC1 [2e, 1-(4-(4-(2-Methoxyethyl)piperazin-1-yl)phenyl)-3-(naphthalen-1-yl)prop-2-en-1-one]",> 100 µg/mL,> 100 µg/mL,62.5 µg/mL,31.3 µg/mL,62.5 µg/mL,31.3 µg/mL,15.6 µg/mL,62.5 µg/mL,> 100 µg/mL,20.6 ± 0.52 µM,45.5 ± 2.5 µM,19.8 ± 0.81 µM,136.2 to 137.8 °C,–,–,–,–,–,–,–
"CC[C@H]1OC(=O)[C@H](C)[C@@H](O[C@H]2C[C@@](C)(OC)[C@@H](O)[C@H](C)O2)[C@H](C)[C@@H](O[C@@H]2O[C@H](C)C[C@H](N(C)C)[C@H]2O)[C@](C)(O)C[C@@H](C)CN(C)[C@H](C)[C@@H](O)[C@]1(C)O [SD1, Azithromycin, reference compound]",< 0.97 µg/mL,< 0.97 µg/mL,< 0.97 µg/mL,< 0.97 µg/mL,< 0.97 µg/mL,< 0.97 µg/mL,–,–,–,–,–,–,–,–,–,–,–,–,–,–
"C[C@@H](c1ncncc1F)[C@](O)(Cn1cncn1)c1ccc(F)cc1F [SD2, Voriconazole, reference compound]",–,–,–,–,–,–,3.9 µg/mL,3.9 µg/mL,1.95 µg/mL,–,–,–,–,–,–,–,–,–,–,–
"CC(C)N1CCN(c2ccc(C(=O)C=Cc3cccc4ccccc34)cc2)CC1 [2c, 1-(4-(4-Isopropylpiperazin-1-yl)phenyl)-3-(naphthalen-1-yl)prop-2-en-1-one]",> 100 µg/mL,> 100 µg/mL,62.5 µg/mL,31.3 µg/mL,62.5 µg/mL,31.3 µg/mL,15.6 µg/mL,62.5 µg/mL,> 100 µg/mL,34.3 ± 5.56 µM,96.1 ± 5.46 µM,> 100 µM,146.8 to 147.5 °C,–,–,–,–,–,–,–
"CN1CCN(c2ccc(C(=O)C=Cc3ccc4ccccc4c3)cc2)CC1 [2f, 1-(4-(4-Methylpiperazin-1-yl)phenyl)-3-(naphthalen-2-yl)prop-2-en-1-one]",> 100 µg/mL,> 100 µg/mL,> 100 µg/mL,31.3 µg/mL,31.3 µg/mL,15.6 µg/mL,62.5 µg/mL,> 100 µg/mL,> 100 µg/mL,35.7 ± 0.37 µM,29.7 ± 0.79 µM,25.6 ± 0.26 µM,204.5 to 206.2 °C,–,–,–,–,–,–,–
"CCN1CCN(c2ccc(C(=O)C=Cc3ccc4ccccc4c3)cc2)CC1 [2g, 1-(4-(4-Ethylpiperazin-1-yl)phenyl)-3-(naphthalen-2-yl)prop-2-en-1-one]",> 100 µg/mL,> 100 µg/mL,> 100 µg/mL,31.3 µg/mL,> 100 µg/mL,62.5 µg/mL,31.3 µg/mL,> 100 µg/mL,> 100 µg/mL,39.1 ± 1.24 µM,35.6 ± 0.98 µM,52.4 ± 2.57 µM,196.5 to 198 °C,–,–,–,–,–,–,–
"CC(C)N1CCN(c2ccc(C(=O)C=Cc3ccc4ccccc4c3)cc2)CC1 [2h, 1-(4-(4-Isopropylpiperazin-1-yl)phenyl)-3-(naphthalen-2-yl)prop-2-en-1-one]",> 100 µg/mL,> 100 µg/mL,> 100 µg/mL,31.3 µg/mL,> 100 µg/mL,62.5 µg/mL,31.3 µg/mL,> 100 µg/mL,> 100 µg/mL,41.3 ± 1.5 µM,46.3 ± 1.25 µM,66.5 ± 0.98 µM,213.3 to 214.9 °C,–,–,–,–,–,–,–
"CN1CCN(c2ccc(C(=O)C=Cc3cccc4ccccc34)cc2)CC1 [2a, 1-(4-(4-Methylpiperazin-1-yl)phenyl)-3-(naphthalen-1-yl)prop-2-en-1-one]",> 100 µg/mL,> 100 µg/mL,62.5 µg/mL,31.3 µg/mL,> 100 µg/mL,62.5 µg/mL,31.3 µg/mL,62.5 µg/mL,62.5 µg/mL,> 100 µM,> 100 µM,61.9 ± 1.42 µM,150.2 to 152.1 °C,–,–,–,–,–,–,–
"C=CCN1CCN(c2ccc(C(=O)C=Cc3cccc4ccccc34)cc2)CC1 [2d, 1-(4-(4-Allylpiperazin-1-yl)phenyl)-3-(naphthalen-1-yl)prop-2-en-1-one]",> 100 µg/mL,> 100 µg/mL,62.5 µg/mL,15.6 µg/mL,> 100 µg/mL,31.3 µg/mL,31.3 µg/mL,62.5 µg/mL,> 100 µg/mL,71.1 ± 3.08 µM,45.1 ± 8.12 µM,19.8 ± 1.31 µM,120.2 to 121.9 °C,–,–,–,–,–,–,15.7 µg/mL
"OC(Cn1cncn1)(Cn1cncn1)c1ccc(F)cc1F [SD3, Fluconazole, reference compound]",–,–,–,–,–,–,7.81 µg/mL,7.81 µg/mL,3.9 µg/mL,–,–,–,–,–,–,–,–,–,–,–
"C=CCN1CCN(c2ccc(C(=O)C=Cc3ccc4ccccc4c3)cc2)CC1 [2i, 1-(4-(4-Allylpiperazin-1-yl)phenyl)-3-(naphthalen-2-yl)prop-2-en-1-one]",> 100 µg/mL,> 100 µg/mL,> 100 µg/mL,31.3 µg/mL,> 100 µg/mL,31.3 µg/mL,31.3 µg/mL,> 100 µg/mL,> 100 µg/mL,21.4 ± 2.56 µM,97.1 ± 4.94 µM,> 100 µM,186.9 to 188.8 °C,–,–,–,–,–,–,–
